Experimental data as given in PMC11274883, “Anticancer Effect of Pt^[sequence], Pt^II5MESS, Pt^II56MESS and Their Platinum(IV)-Dihydroxy Derivatives against Triple-Negative Breast Cancer and Cisplatin-Resistant Colorectal Cancer” (Cancers, 2024).

Experiments:
Format in all cases: cell-based
[1] = tested on: HT29 cells; experiment: Cellular uptake of Pt by ICP-MS; conditions: for Intracellular Concentration: HT29, 3 µM; for Intracellular/extracellular ratio: HT29, extracellular 3 µM
Method: (§1) A final concentration of 10^6 cells/well of MDA−MB−231 and HT29 cells were seeded in 6-well plates and incubated overnight to adhere. The cells were then treated with a final concentration of 3 µM of either Pt^II or Pt^IV complexes. After 0, 0.5, 1, 3, 6, 12, 24 or 30 h, the medium was removed, and the cells were washed three times with cold PBS and allowed to dry. Then, 400 µL of 69% HNO3 (Baseline grade nitric acid with PPB level reported impurities, Seastar Chemicals, Sidney, BC, Canada) was added to each well for 90 min to ensure complete digestion. […] Iridium 193 (^193Ir) was mixed online and introduced into the ICP-MS to check uptake efficiency and matrix interference. All ICP-MS parameters are described in Table S2 and elaborated in Method S3. The results represent an average of three different experiments run in triplicate (±SEM) and expressed as nmol/10^6 cells or µM/cell. Quantification of the cellular uptake of Pt was based on external standards (Certified Standard from Sigma-Aldrich, VIC, Australia) containing Internal standard Ir.
(§2) Method S3. Cellular Uptake of Platinum(II) and (IV) complexes
(§3) A final concentration of 10^6 cells/well of MDA−MB−231 and HT29 cells were seeded in 6-well plates and incubated overnight to adhere. The cells were then treated with a final concentration of 3 µM of either PtII or PtIV complexes. After 0, 0.5, 1, 3, 6, 12, 24 or 30 h, the medium was removed, and the cells were washed three times with cold PBS and allowed to dry. Then, 400 µL of 69% HNO3 (Baseline grade nitric acid with Instrument Quality Grade Nitric acid with ppb level reported impurities, Seastar Chemicals, Sidney, Canada) was added to each well for 90 mins to ensure complete digestion. The digests were then moved to trace -metal free 15 mL centrifuge tubes […]
(§4) concentration of 3.5-4%. Iridium 193 (193Ir), selected as internal standard, has similar first ionisation potential and mass to Platinum 195 (195Pt). A concentration of 50 ppb 193Ir in 2% HNO3 solution was chosen for the Perkin Elmer NexION® Inductively Coupled Plasma Mass Spectrometer (ICP-MS) as it produced a steady state signal intensity of 600-800K counts per second. Mixing and injection of sample and internal standard solution was carried out using an ESI 7 port Valve system (Elemental Scientific, USA). A high-quality Solvent Flex 2 stop pump with 0.38 mm ID tubing was used in conjunction with the ICP-MS’s Peristaltic pump set at 20 […]
(§5) standard both, at 0.25 mL/min) being 0.5 mL/min. The ICP-MS was tuned to high sensitivity settings to facilitate detection of low Pt concentrations in samples. This was done by adjusting the nebuliser gas flow between […] to achieve maximum Indium 115 intensity whilst maintaining an acceptable average oxide and doubly charged ratio of 1.64-2.24% and 1.17-1.69% respectively. The analysis method was set to peak hopping mode with a dwell time of […] and 45 sweeps through the mass spectrum per sample read. […]
(§6) peak integration time of 4500 milliseconds and enabled the collection of numerous data points for peak integration thereby increasing accuracy. The ICP-MS was tuned daily, and its performance optimised to a set of suppliers recommended settings. Analysis was only carried out when optimal oxide and doubly charged ratios with high ionic sensitivity was achieved. All ICP-MS parameters are described in Table S2. The results represent an average of three different experiments run in triplicates (± SEM) and expressed as nmol/106 cells or µM/cell. Quantification of the cellular uptake of Pt was based on external standards (Certified Standard from Sigma-Aldrich NSW, Australia) containing Internal standard Ir. […]

[2] = tested on: MDA−MB−231 cells; experiment: Cellular uptake of Pt by ICP-MS; conditions: for Intracellular Concentration: MDA−MB−231, 3 µM; for Intracellular/extracellular ratio: MDA−MB−231, extracellular 3 µM
Method: as §1, §2, §3, §4, §5, §6

[3] = tested on: HT29 cells; experiment: DCFDA cellular ROS detection assay; conditions: complexes at IC50, TBHP 20 µM
Method: (§7) DCFDA/H2DCFDA-cellular ROS Assay Kit (Abcam, Cambridge, MA, USA) was used to investigate the production of ROS in treated cells, as previously described. MDA−MB−231 or HT29 cells were seeded at a total concentration of 2500 cells/well in 96-well plates and incubated overnight. DMEM was then removed, and cells washed with 1× kit buffer, and stained with 25 µM 2′,7′-dichlorofluorescein diacetate (DCFH-DA) for 45 min. […] After that, the plates were scanned using the Glo-Max®-Multimode microplate reader (Promega Corporation, Alexandra, VIC, Australia) at an excitation/emission of 485/535 nm to detect fluorescence (relative fluorescence units, or RFU) at various time points. A positive control was generated using 20 µM tert-butyl hydroperoxide (TBHP), and the same procedure was applied with DCFDA. Three independent experiments in triplicates were implemented.

[4] = tested on: MDA−MB−231 cells; experiment: DCFDA cellular ROS detection assay; conditions: complexes at IC50, TBHP 20 µM
Method: as §7

[5] = tested on: MCF10A; experiment: WST-1 cytotoxicity, 72 h; conditions: mean ± SEM
Method: Cells were seeded in 96-well flat-bottom culture plates at a concentration of 1000 cells per well. […] After 72 h, the medium was removed and replaced with new medium. The cell viability reagent WST-1 (10 µL, Roche Diagnostics, Indianapolis, IN, USA) was added to each well. After an hour, the absorbance was measured at 450 nm using a versatile microplate reader (Bio-strategy, Campbellfield, VIC, Australia). Three separate experiments were performed, each with n = 3 replicates. GraphPad prism 10 was used to calculate apparent IC50 values using the nonlinear regression model Y = Bottom + (Top-Bottom)/(1 + 10^(X-LogIC50)) where Top and bottom are plateaus in the y-axis (% survival). The R^2 value of the curve fits ranged from 0.8972 to 0.9794.

For `Cc1c(C)c2cccnc2c2ncccc12.N[C@H]1CCCC[C@@H]1N.O=[N+]([O-])[O-].O=[N+]([O-])[O-].[Pt+2]` [Pt^II56MESS, [Pt(5,6-dimethyl-1,10-phenanthroline)(1S,2S-diaminocyclohexane)](NO3)2], the “Intracellular Concentration” value ([1]; 0 h) was 0.45 nmol/10^6 cells, the “Intracellular Concentration” value ([1]; 0.5 h) was 0.87 nmol/10^6 cells and the “Intracellular Concentration” value ([1]; 1 h) was 1.38 nmol/10^6 cells. For the same compound, the “Intracellular Concentration” value ([1]; 3 h) was 2.23 nmol/10^6 cells, the “Intracellular Concentration” value ([1]; 6 h) was 5.05 nmol/10^6 cells and the “Intracellular Concentration” value ([1]; 12 h) was 17.67 nmol/10^6 cells. For the same compound, the “Intracellular Concentration” value ([1]; 24 h) was 23.28 nmol/10^6 cells, the “Intracellular Concentration” value ([1]; 30 h) was 24.85 nmol/10^6 cells and the “intracellular/extracellular ratio relative to the maximum ratio of cisplatin” value ([1]; HT29, 30 h) was 34.8 fold. The Intracellular/extracellular ratio ([1]; 0 h) was 70.93, the Intracellular/extracellular ratio ([1]; 0.5 h) was 136.74 and the Intracellular/extracellular ratio ([1]; 1 h) was 216.82. The Intracellular/extracellular ratio ([1]; 3 h) was 350.73, the Intracellular/extracellular ratio ([1]; 6 h) was 793.80 and the Intracellular/extracellular ratio ([1]; 12 h) was 2776.28. The Intracellular/extracellular ratio ([1]; 24 h) was 3657.59, the Intracellular/extracellular ratio ([1]; 30 h, listed as 56MESS) was roughly 3904 and the Intracellular/extracellular ratio ([1]; 30 h, listed as PtII56MESS) was 3903.51. For the same compound, the “drug's concentration per cell” value ([1]; per HT29 cell, cell volume 1.7 pL, starting concentration 3 µM) was ~11,711 µM, the “Intracellular Concentration” value ([2]; 0 h) was 0.68 nmol/10^6 cells and the “Intracellular Concentration” value ([2]; 0.5 h) was 0.58 nmol/10^6 cells. The “Intracellular Concentration” value ([2]; 1 h) was 0.78 nmol/10^6 cells, the “Intracellular Concentration” value ([2]; 3 h) was 1.24 nmol/10^6 cells and the “Intracellular Concentration” value ([2]; 6 h) was 1.88 nmol/10^6 cells. The “Intracellular Concentration” value ([2]; 12 h) was 4.80 nmol/10^6 cells, the “Intracellular Concentration” value ([2]; 24 h) was 5.38 nmol/10^6 cells and the “Intracellular Concentration” value ([2]; 30 h) was 11.24 nmol/10^6 cells. For the same compound, the “intracellular/extracellular ratio relative to the maximum ratio of cisplatin” value ([2]; MDA−MB−231, 30 h) was 8.7 fold, the Intracellular/extracellular ratio ([2]; 0 h) was 107.16 and the Intracellular/extracellular ratio ([2]; 0.5 h) was 92.36. The Intracellular/extracellular ratio ([2]; 1 h) was 122.42, the Intracellular/extracellular ratio ([2]; 3 h) was 195.59 and the Intracellular/extracellular ratio ([2]; 6 h) was 296.93. For the same compound, the Intracellular/extracellular ratio ([2]; 12 h) was 754.52, the Intracellular/extracellular ratio ([2]; 24 h) was 845.27 and the Intracellular/extracellular ratio ([2]; 30 h) was 1765.95 ± 526.75. The Intracellular/extracellular ratio ([2]; 30 h, listed as 56MESS) was “around 1766”, the Intracellular/extracellular ratio ([2]; 30 h, listed as PtII56MESS) was 1765.95 and the “drug's concentration per cell” value ([2]; per MDA−MB−231 cell, cell volume 1.7 pL, starting concentration 3 µM) was “about 5298 µM”. The ROS production ([3]; HT29, 24 h) was 321.56 RFU, the ROS production ([3]; HT29, 48 h) was 433.67 RFU and the ROS production ([3]; HT29, 72 h) was 453.89 RFU. The ROS production ([4]; MDA−MB−231, 24 h) was 338.49 RFU, the ROS production ([4]; MDA−MB−231, 48 h) was 418.08 RFU and the ROS production ([4]; MDA−MB−231, 72 h) was 446.09 RFU. For the same compound, the IC50 [5] was 0.41 µM.

`Cc1cc2cccnc2c2ncccc12.N[C@H]1CCCC[C@@H]1N.O=[N+]([O-])[O-].O=[N+]([O-])[O-].[OH][Pt+2][OH]` [Pt^IV5MESS(OH)2, [Pt(5-methyl-1,10-phenanthroline)(1S,2S-diaminocyclohexane)(dihydroxy)](NO3)2] was tested, and the “Intracellular Concentration” value ([1]; 0 h) was 0.15 nmol/10^6 cells, the “Intracellular Concentration” value ([1]; 0.5 h) was 0.17 nmol/10^6 cells and the “Intracellular Concentration” value ([1]; 1 h) was 0.28 nmol/10^6 cells. The “Intracellular Concentration” value ([1]; 3 h) was 0.33 nmol/10^6 cells, the “Intracellular Concentration” value ([1]; 6 h) was 0.66 nmol/10^6 cells and the “Intracellular Concentration” value ([1]; 12 h) was 5.05 nmol/10^6 cells. The “Intracellular Concentration” value ([1]; 24 h) was 7.37 nmol/10^6 cells, the “Intracellular Concentration” value ([1]; 30 h) was 7.85 nmol/10^6 cells and the Intracellular/extracellular ratio ([1]; 0 h) was 25.03. For the same compound, the Intracellular/extracellular ratio ([1]; 0.5 h) was 26.29, the Intracellular/extracellular ratio ([1]; 1 h) was 44.59 and the Intracellular/extracellular ratio ([1]; 3 h) was 52.25. It also gave an Intracellular/extracellular ratio ([1]; 6 h) of 104.08, an Intracellular/extracellular ratio ([1]; 12 h) of 793.61 and an Intracellular/extracellular ratio ([1]; 24 h) of 1158.37. For the same compound, the Intracellular/extracellular ratio ([1]; 30 h) was 1234.08, the “Intracellular Concentration” value ([2]; 0 h) was 0.16 nmol/10^6 cells and the “Intracellular Concentration” value ([2]; 0.5 h) was 0.22 nmol/10^6 cells. For the same compound, the “Intracellular Concentration” value ([2]; 1 h) was 0.17 nmol/10^6 cells, the “Intracellular Concentration” value ([2]; 3 h) was 0.25 nmol/10^6 cells and the “Intracellular Concentration” value ([2]; 6 h) was 0.29 nmol/10^6 cells. The “Intracellular Concentration” value ([2]; 12 h) was 1.19 nmol/10^6 cells, the “Intracellular Concentration” value ([2]; 24 h) was 1.31 nmol/10^6 cells and the “Intracellular Concentration” value ([2]; 30 h) was 2.37 nmol/10^6 cells. The Intracellular/extracellular ratio ([2]; 0 h) was 26.14, the Intracellular/extracellular ratio ([2]; 0.5 h) was 35.23 and the Intracellular/extracellular ratio ([2]; 1 h) was 27.69. The Intracellular/extracellular ratio ([2]; 3 h) was 40.45, the Intracellular/extracellular ratio ([2]; 6 h) was 46.47 and the Intracellular/extracellular ratio ([2]; 12 h) was 186.97. It also gave an Intracellular/extracellular ratio ([2]; 24 h) of 205.97, an Intracellular/extracellular ratio ([2]; 30 h) of 371.97 and an ROS production ([3]; HT29, 24 h) of 234.55 RFU. For the same compound, the ROS production ([3]; HT29, 48 h) was 278.33 RFU, the ROS production ([3]; HT29, 72 h) was 296.67 RFU and the ROS production ([4]; MDA−MB−231, 24 h) was 245.26 RFU. It also gave an ROS production ([4]; MDA−MB−231, 48 h) of 264.00 RFU, an ROS production ([4]; MDA−MB−231, 72 h) of 314.78 RFU and an IC50 [5] of 12.2 ± 1.48 µM.
